Laboratory results as given in patent publication US20060234276A1, “Methods of treatment of type 2 diabetes” (priority 1998, published 2006).
Peptide text beside a SMILES is read from it.

Experiments:
islets = assay: Insulin content of islets after 48 h inhibitor exposure; assay type: cell-based, mouse; conditions: 48 hours treatment
calpain = assay: Calpain activity in mouse pancreatic islets (Boc-Leu-Met-CMAC cleavage); assay type: cell-based
mouse pancreatic islets = assay: Static incubation of isolated pancreatic islets, insulin secretion; assay type: cell-based
Experimental: Static incubation of isolated pancreatic islets. Isolation of mouse pancreatic islets was accomplished using collagenase digestion as previously described (Pontoglio et al., 1998). […] Triplicate groups of 5 islets were then incubated in borosilicate tubes containing 1 ml of KRB with the same concentration of inhibitor and various insulin secretagogues for one hour in a moving water bath at 37° C. The reaction was stopped by placing the tubes on ice and an aliquot of the buffer was removed for measurement of insulin levels. Control studies, in which the incubation mixture contained vehicle (0.1% DMSO) only, were performed using aliquots of the same batch of islets
Assay methods. Insulin concentrations were measured by a double antibody radioimmunoassay using a rat insulin standard. The intra-assay coefficient of variation for this technique is 7%. All samples were assayed in duplicate.

rat adipocytes = assay: 2-Deoxyglucose uptake into adipocytes; assay type: cell-based; conditions: 100 μM ALLM or 200 μM E-64-d
Experimental: Adipocytes were isolated from epididymal fat pads of 3 month old male Wistar rats as described previously (Robdell, 1964) with the following modification: fat pads were minced to 1-2 mm pieces and incubated for ˜25 min at 37° C. with collagenase I (1 mg/ml, Worthington Biochemicals, Lakewood, N.J.) in KRB containing 10 mM Hepes (pH 7.4), 0.2% BSA and 2 mM sodium pyruvate. The cell suspension was filtered through a nylon mesh (134 μM, Spectrum Lab., Laguna Hills, Calif.) washed three times by floating and allowed to rest for 45 min in the KRB. […] Then another 50 μl of KRB containing 5 mM 2-DOG (final concentration 1 mM), 0.5 μCi of 2-deoxy-[2,6-^3H]glucose was added and cells were incubated for a further 5 min at 25° C. The transport was stopped by adding cytochalasin B (final concentration 50 μM) and cells were spun through 250 μl of dinonyl phthalate oil (Fisher Scientific, Pittsburgh, Pa.). Cells were then transferred to scintillation vials for counting.

β-cells = assay: Whole-cell patch-clamp calcium currents in β-cells; assay type: cell-based, mouse
Experimental: Isolation of pancreatic β-cells. Single β-cells were obtained from isolated islets dispersed by gentle trituration (120 strokes through a 200 μl pipette tip) in Ca^2+ and Mg^2+-free PBS containing […]. Cells were plated on glass coverslips and maintained in culture in RPMI containing 11.6 mM glucose for 48-96 hr.
Patch-clamp electrophysiology. Calcium current measurements were obtained in the whole-cell patch-clamp configuration. Calcium currents were activated by step depolarizations to either +10 or +20 mV for either 20 ms or 100 ms, from HP=−80 mV. All current records are corrected for leak and capacitance. The data was filtered at 2 kHz and then sampled every 100 μs. Pipette resistances were 1.5-2.5 MΩ. Series resistance was partially compensated (˜80%) using the compensation circuit of the Axopatch-1C amplifier.
Cells were incubated for 3-4 hr in RPMI at 37° C. in either 0.1% DMSO (control) or 100 μM ALLM and then transferred for a further 1-2 hr to KRB containing similar concentrations of DMSO or ALLM. For recording, cells were bathed in a solution containing (in mM): 145 NaCl, 2 KCl, 1 MgCl2, 2 glucose, 10 HEPES, 10 CaCl2, pH 7.3 (adjusted with NaOH) and either DMSO or ALLM. […]

mouse islets = assay: Glucose utilization and oxidation rates in islets; assay type: cell-based
Experimental: Glucose utilization and oxidation rates. Glucose utilization and oxidation rates were measured as previously described (Dukes et al., 1998; Zhou et al., 1996) in mouse islets cultured as described above in the presence or absence of calpain inhibitors.

rat soleus muscle strips = assay: 2-Deoxyglucose uptake into soleus muscle strips; assay type: cell-based; conditions: 100 μM ALLM or 200 μM E-64-d
Experimental: 2-Deoxyglucose uptake into skeletal muscle and adipose tissue. 2-deoxyglucose (2-DOG) uptake by isolated strips of soleus muscle from normal Wistar rats was measured using a modification of a previously described protocol (Burant et al., 1984). […] Muscles were then extracted and 2-DOG uptake calculated as previously described (Burant et al., 1984).

CSCC[C@@H](C=O)NC(=O)[C@H](CC(C)C)NC(=O)[C@H](CC(C)C)NC(C)=O [ALLM, N-Ac-Leu-Leu-methioninal] (Ac-Leu-Leu-Met-aldehyde)
insulin content in islets vs control islets (islets): comparable | area under the curve of rate of generation of fluorescent calpain product (calpain; 200 μM inhibitor, 4 hr incubation): 35±4 % of control values | residual calpain activity in intact islets (calpain; 48 h treatment, 100 μM ALLM or 200 μM E-64-d): 54±3 % of control treated islets | insulin secretory response to 30 mM KCl (mouse pancreatic islets; 100 μM ALLM, 4 hr, 2 mM glucose): did not however significantly increase | insulin secretory response to 100 μM carbachol (CCh) (mouse pancreatic islets; 100 μM ALLM, 4 hr, 8 mM glucose): did not however significantly increase | increase of insulin secretory response to 50 nM GLP-1 (mouse pancreatic islets; 100 μM ALLM, 8 mM glucose): 1.55±0.2 fold | insulin secretory response to 20 mM glucose after recovery (mouse pancreatic islets; 48-h treatment, then 2 days recovery without inhibitor): essentially normal insulin secretory response | effect on insulin secretion at 2 mM glucose (mouse pancreatic islets; 4 hr exposure, ALLM 250 μM, E-64-d 200 μM, 2 mM glucose): not observed | increase of insulin secretory response to 20 mM glucose (mouse pancreatic islets; 4 hr exposure, ALLM 250 μM, E-64-d 200 μM, 20 mM glucose, mean±SEM): 1.97±0.3 fold | inhibition of 20 mM glucose-stimulated insulin secretion (mouse pancreatic islets; 48 h, 100 μM ALLM (so in the source), 50 μM MDL28170): 88±9% | basal insulin secretion (2 mM glucose) vs control-treated islets (mouse pancreatic islets; 48 hours exposure): no significant difference | insulin secretory response to carbachol (mouse pancreatic islets; 48 h treated islets): attenuated | insulin secretory response to glyceraldehyde (mouse pancreatic islets; 48 h treated islets): responded normally | insulin secretory response to mastoparan (mouse pancreatic islets; 48 h treated islets): attenuated | insulin-secretory response to keto-isocaproic acid (KIC) (mouse pancreatic islets; 48 h treated islets): decreased | insulin secretory responses to glucose (summary statement of Example 8) (mouse pancreatic islets; isolated mouse islets, introductory summary, no conditions given): reduces insulin secretory responses | concentration at which inhibition of insulin secretion was achieved (dose response) (mouse pancreatic islets; long-term exposure, glucose stimulated insulin secretion): 25 µM | 2-DOG uptake into adipocytes with insulin (rat adipocytes; insulin 12 nmol/L): 751±71 pmol/2×10^5 cells/5 min | 2-DOG uptake into adipocytes without insulin (rat adipocytes; no insulin): 598±102 pmol/2×10^5 cells/5 min | average peak calcium current density (β-cells; ALLM 100 μM pre-treated cells, n=15): 36.7±3.9 pA/pF | whole-cell calcium currents (β-cells; ALLM 100 μM pre-treated vs control cells): similar | rate of glucose utilization at basal glucose (mouse islets; 2 mM glucose, 100 μM ALLM or 200 μM E-64-d, 4 h): 14.5±3.6 pmol/islet/hr | rate of glucose utilization at stimulatory glucose (mouse islets; 20 mM glucose, 100 μM ALLM or 200 μM E-64-d, 4 h): 89.5±3.0 pmol/islet/hr | rate of basal glucose utilization and oxidation at 3.3 mM glucose (mouse islets; 48 h treated islets): no significant changes | rates of glycolysis and glucose oxidation at stimulating concentrations of glucose (mouse islets; 48 h treated islets vs controls): significantly reduced | glucose oxidation rate at basal glucose (mouse islets; basal glucose, ALLM or E-64-d, 4 h): 6.0±0.7 pmol/islet/hr | glucose oxidation rate at stimulatory glucose (mouse islets; stimulatory glucose, ALLM or E-64-d, 4 h): 39.5±4.1 pmol/islet/hr | 2-deoxyglucose uptake into soleus muscle strips with insulin (rat soleus muscle strips; insulin 12 nM): 0.34±0.05 (mol/ml H20/30 mins | 2-deoxyglucose uptake into soleus muscle strips without insulin (rat soleus muscle strips; no insulin): 0.28±0.04 (mol/ml H20/30 mins
